This assay relates to human σ1 receptor and human μ-opioid receptor. Kind of assay: Human σ1 receptor and human μ-opioid receptor radioligand assays (μ and σ1 dual binding). To be noted: joint class for Ki at σ1 ([3H](+)-pentazocine, transfected HEK-293 membranes) and Ki at μ-opioid ([3H]-DAMGO, transfected CHO-K1 membranes). Also on record: key to μ and σ1 dual binding: +: Both Ki-μ and Ki-σ1>=500 nM; ++: One Ki<500 nM while the other Ki is >=500 nM; +++: Both Ki-μ and Ki-σ1<500 nM; ++++: Both Ki-μ and K1-σ1<100 nM.

Here are results for eleven molecules from patent US10351549B2, “Amide derivatives having multimodal activity against pain” (priority 2015, dated 2019).

A value given as a limit tells only on which side of the number the result lay.

`CCC(=O)N(CCN1CCC(N(C)Cc2ccccc2)C1)c1ncccc1F` (centres unmarked) [Example 1, N-(2-(3-(Benzyl(methyl)amino)pyrrolidin-1-yl)ethyl)-N-(3-fluoropyridin-2-yl)propionamide]: the “μ and σ1 dual binding” value is reported as “++”.

Usually Ki stands for a dissociation constant, usually derived from enzyme kinetics or from competition with a known ligand. Molecule `CCC(=O)N(CCN1CCC(N(C)Cc2ccccc2)C1)c1ccccc1` (centres unmarked) [Example 2, N-(2-(3-(benzyl(methyl)amino)pyrrolidin-1-yl)ethyl)-N-phenylpropionamide] yielded an inhibitory constant (Ki) of less than 500 nM.

With `CCC(=O)N(CCN1CC[C@H](N(C)Cc2ccccc2)C1)c1ccccc1` [Example 3, (S)-N-(2-(3-(benzyl(methyl)amino)pyrrolidin-1-yl)ethyl)-N-phenylpropionamide], the “μ and σ1 dual binding” value is recorded as “++”.

Consider `CCC(=O)N(CCN1CC[C@@H](N(C)Cc2ccccc2)C1)c1ccccc1` [Example 4, (R)-N-(2-(3-(benzyl(methyl)amino)pyrrolidin-1-yl)ethyl)-N-phenylpropionamide], for which the Ki was less than 500 nM.

In turn, `CCC(=O)N(CCN1CCC(N(C)Cc2ccccc2)C1)c1cccc(C(F)(F)F)n1` (centres unmarked) [Example 5, N-(2-(3-(benzyl(methyl)amino)pyrrolidin-1-yl)ethyl)-N-(6-(trifluoromethyl)pyridin-2-yl)propionamide] came in with a Ki of no less than 500 nM.

Regarding `CCC(=O)N(CCN1CCC(N(C)Cc2ccccc2)C1)c1cccc(C(F)(F)F)n1` (centres unmarked) [Example 6], the “μ and σ1 dual binding” value is recorded as “++”.

As for `CCC(=O)N(CCN1CC(N(C)Cc2ccccc2)C1)c1cccc(C(F)(F)F)n1` [Example 9, N-(2-(3-(benzyl(methyl)amino)azetidin-1-yl)ethyl)-N-(6-(trifluoromethyl)pyridin-2-yl)propionamide], the “μ and σ1 dual binding” value is reported as “++”.

The molecule `CCC(=O)N(CCN1CCC(N(C)CC(C)C)C1)c1cccc(C(F)(F)F)n1` (centres unmarked) [Example 12, N-(2-(3-(isobutyl(methyl)amino)pyrrolidin-1-yl)ethyl)-N-(6-(trifluoromethyl)pyridin-2-yl)propionamide] yielded a Ki of no less than 500 nM.

The molecule `CCOCCN(C)C1CCN(CCN(C(=O)CC)c2cccc(C(F)(F)F)n2)C1` (centres unmarked) [Example 16] came in with an inhibitory constant (Ki) of no less than 500 nM.

The molecule `CCOCCN(C)C1CCN(CCN(C(=O)CC)c2cccc(C(F)(F)F)n2)C1` (centres unmarked) [Example 17] had a Ki of no less than 500 nM.

For the molecule `CCC(=O)N(CCN1CC2CN(CC(C)C)CC2C1)c1cccc(C(F)(F)F)n1` (centres unmarked) [Example 18, N-(2-(5-isobutylhexahydropyrrolo[3,4-c]pyrrol-2(1H)-yl)ethyl)-N-(6-(trifluoromethyl)pyridin-2-yl)propionamide], the “μ and σ1 dual binding” value is “++”.
